Assay results reported in patent US8633208B2, “6-1H-imidazo-quinazoline and quinolines derivatives, new MAO inhibitors and imidazoline receptor ligands” (Rottapharm S.p.A, priority 2008, dated 2014).
Where a name gives a salt, the structure may show the parent alone. Read-outs that look alike come from different tables or passages of the source.

Assays:
I2 Imidazoline Receptor = experiment: Binding study towards I2 imidazoline receptor subtype in rat brain ([3H]2-BFI displacement); settings: read-out: [3H]2-BFI binding IC50; rat whole brain membranes, [3H]-2BFI 2.5x10-9 M, 90 min at 25° C.
Procedure: Binding Study Towards I2 Imidazoline Receptor Subtype in Rat Brain.
Male Wistar rats (240-300 g, Harlan, Italy) were sacrificed by decapitation. Whole brains were immediately removed on ice and homogenised in 10 volumes of buffered sucrose (0.32M in 50 mM Tris-HCl, pH 7.4 at 4° C.) using a motor driven Teflon-glass homogeniser. The homogenate was centrifuged at 1000×g for 10 min at 4° C. The resultant supernatants were pooled and centrifuged at 32000×g for 20 min at 4° C. The supernatants were discarded and each pellet suspended in 10 volumes of assay buffer (50 mM Tris-HCl, 1 mM MgCl2, pH 7.4 at 4° C.) and spun at 32000×g for 20 min at 4° C. The pellets were washed twice by repeated centrifugation at 32000×g for 20 min at 4° C. The final pellets were stored at −80° C. until use. Prior to radioligand binding studies, membrane pellets were thawed and washed a further 4 times by re-suspension in 10 volumes of assay buffer (as above) and repeated centrifugation to remove any possible endogenous inhibitors of binding. […] Non specific binding was determined in the presence of 10^-5 M BU224 (Tocris Bioscience). The incubation, in a final volume of 1 ml, was performed in polystyrene multiwell 24, started adding membranes suspension and was carried out for 90 min at 25° C. With the exception of total binding and non specific binding, all concentration points were performed in duplicate. Compounds were tested in 3-5 different concentrations, ranging from 10^-10 M to 10^-5 M final concentration.

human recombinant MAO-B = human recombinant MAO-B (Homo sapiens (Human), UniProt P27338); experiment: Monoaminooxidase (MAO) activity assay, MAO-Glo luminescent method, MAO-B
human recombinant MAO-B, sequence (P27338 whole entry): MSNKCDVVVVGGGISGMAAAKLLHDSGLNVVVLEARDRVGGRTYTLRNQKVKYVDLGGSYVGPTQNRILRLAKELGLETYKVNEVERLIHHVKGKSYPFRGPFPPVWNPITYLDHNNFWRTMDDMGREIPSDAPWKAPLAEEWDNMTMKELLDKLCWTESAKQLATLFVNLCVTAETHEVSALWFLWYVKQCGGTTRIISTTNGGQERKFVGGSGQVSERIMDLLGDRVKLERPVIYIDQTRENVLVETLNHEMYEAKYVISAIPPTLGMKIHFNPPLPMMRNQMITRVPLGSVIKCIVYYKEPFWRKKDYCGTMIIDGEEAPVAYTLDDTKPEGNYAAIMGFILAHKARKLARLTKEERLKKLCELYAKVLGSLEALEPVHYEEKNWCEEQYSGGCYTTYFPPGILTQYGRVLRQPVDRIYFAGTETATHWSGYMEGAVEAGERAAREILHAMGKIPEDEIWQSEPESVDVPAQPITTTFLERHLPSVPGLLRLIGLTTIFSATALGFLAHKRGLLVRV
Procedure: Monoaminooxidase (MAO) Activity Assay.
(§1) Inhibitory activity of compounds was evaluated by a homogeneous luminescent method, the MAO-Glo™ Assay (Promega), measuring the monoamine oxidase activity (MAOs) from recombinant source (microsomes from baculovirus infected insect cells, Sigma). Experiments were performed according to the Supplier's procedure, incubating human recombinant MAO-A or MAO-B with a luminogenic substrate, a derivative of beetle luciferin ((4S)-4,5-dihydro-2-(6-hydroxybenzothiazolyl)-4-thiazolecarboxylic acid). […] The MAO-Glo™ Assay was performed in two steps:
(§2) Step 1. The MAO reaction: MAO substrate was incubated with MAO-A or MAO-B (1 μg/sample) in the absence (Total activity) or presence (modulated activity) of test compounds. Total activity was determined in the presence the appropriate solvent. […] Reaction started adding the enzyme solution and samples were incubated for 60 min at room temperature. For negative control reaction, samples of MAO reaction buffer (100 mM Hepes, 5% glycerol, pH 7.5) indeed the test compound were included. For MAO-B activity assay, MAO reaction buffer contain 10% DMSO, in order to increase enzymatic activity. Step 2. […] At the end of incubation 50 μl of Luciferin Detection reagent were added to each well, plate was incubated at room temperature for 20 min, then luminescent signal was detected by luminometer (integration time 0.25-1 sec per well). […] Net MAO-dependent luminescence (net RLU) were calculated by subtracting the average luminescence of the negative control reaction without MAO enzyme. A reduction of net signal in the presence of test compound, with respect to total activity, reflect its effect on MAOs activity. […] A percentage of inhibition for each concentration tested were calculated and the IC50 value was estimated by linear regression.

human recombinant MAO-A = human recombinant MAO-A (Homo sapiens (Human), UniProt P21397); experiment: Monoaminooxidase (MAO) activity assay, MAO-Glo luminescent method, MAO-A
human recombinant MAO-A, sequence (P21397 whole entry): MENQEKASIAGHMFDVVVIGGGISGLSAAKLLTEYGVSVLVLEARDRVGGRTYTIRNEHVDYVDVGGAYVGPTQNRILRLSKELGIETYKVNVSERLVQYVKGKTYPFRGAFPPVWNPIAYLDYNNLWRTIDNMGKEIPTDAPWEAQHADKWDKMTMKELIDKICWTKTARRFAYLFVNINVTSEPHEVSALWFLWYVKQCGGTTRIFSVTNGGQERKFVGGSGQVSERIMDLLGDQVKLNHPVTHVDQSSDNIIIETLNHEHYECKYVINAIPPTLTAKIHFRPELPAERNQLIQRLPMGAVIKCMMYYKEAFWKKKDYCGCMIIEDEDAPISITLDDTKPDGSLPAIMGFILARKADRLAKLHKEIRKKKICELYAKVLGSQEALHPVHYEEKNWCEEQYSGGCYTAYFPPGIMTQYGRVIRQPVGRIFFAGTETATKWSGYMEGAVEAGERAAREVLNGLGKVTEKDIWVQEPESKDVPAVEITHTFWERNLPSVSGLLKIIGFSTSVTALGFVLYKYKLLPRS
Procedure: Monoaminooxidase (MAO) Activity Assay.
as §1, §2

CD1 Mice = experiment: Tail suspension test in mice; format: in vivo; settings: Table 3; for MPE (% inhibition in immobility time): 30 min before the test
Procedure: Tail Suspension Test in Mice
To evaluate novel antidepressants compounds several animal models have been developed. […] The antidepressant effect of representative examples of compounds of formula (I) has been evaluated according to the procedure below. The immobility was induced according to the procedure of Stem et al. (1985). CD1 Mice (Harlan, Italy) were individually suspended 75 cm above the top with an adhesive tape placed 1 cm from the tip of the tail. Immobility duration was recorded for 5 min. Mice were considered immobile only when they hung passively and completely motionless. Compounds were given orally, 30 min before the test at doses ranging between 0.3 and 30 mg/kg. Data collected were expressed as mean percent effect (MPE), which represents the % of inhibition in immobility time between the animals treated with representative compounds of formula (I) and the controls that received only the vehicle.

[1] = read-out: MAO A activity IC50, human recombinant MAO-A, substrate 40 μM, 60 min room temperature

With `c1cn(-c2ccc3nc(-c4ccc5c(c4)OCO5)ncc3c2)cn1` [Example 13, [6-(1H-imidazol-1-yl)-2-(1,3-benzodioxol-5-yl)]quinazoline] the IC50 (I2 Imidazoline Receptor) was 1.34 µM, the IC50 (human recombinant MAO-B) was > 10 µM and the IC50 (human recombinant MAO-A; [1]) was 10 µM.

Compound `CN(C)c1ccc(-c2ccc3cc(-n4ccnc4)ccc3n2)cc1` (as salt: hydrochloride) [Example 22, [6-(1H-imidazol-1-yl)-2-(4-dimethylaminophenyl)]quinoline trihydrochloride] has a melting point of 284 to 286 °C.

`Cc1cn(-c2ccc3nc(-c4ccc(F)cc4)ccc3c2)cn1` (as salt: hydrochloride) [Example 32, [6-(4-methyl-1H-imidazol-1-yl)-2-(4-fluorophenyl)]quinoline dihydrochloride] showed a melting point of 264 to 268 °C.

`c1ccc(-c2ccc3cc(-n4ccnc4)ccc3n2)cc1` [Example 17] showed an IC50 (I2 Imidazoline Receptor) of 0.42 µM and an IC50 (human recombinant MAO-B; read-out: MAO B activity IC50) of 10 µM.

`FC(F)(F)Oc1ccc(-c2ccc3cc(-n4ccnc4)ccc3n2)cc1` (as salt: hydrochloride) [Example 23, [6-(1H-imidazol-1-yl)-2-(4-trifluoromethoxyphenyl)]quinoline dihydrochloride] gave a melting point of 260 to 262 °C.

Work on `Cc1cn(-c2ccc3nc(-c4ccc5c(c4)OCO5)ncc3c2)cn1` (as salt: hydrochloride) [Example 9, [6-(4-methyl-1H-imidazol-1-yl)-2-(1,3-benzodioxol-5-yl)]quinazoline] yielded a melting point of 215.3 to 218.7 °C.

`Cc1cn(-c2ccc3nc(-c4ccc(S(C)(=O)=O)cc4)ncc3c2)cn1` (as salt: hydrochloride) [Example 11, [6-(4-methyl-1H-imidazol-1-yl)-2-(4-methanesulfonylphenyl)]quinazoline] showed a melting point of 276.4 to 281.7 °C.

For `COc1ccc(-c2ccc3cc(-n4cnc(C)c4)ccc3n2)cc1` (as salt: hydrochloride) [Example 31, [6-(4-methyl-1H-imidazol-1-yl)-2-(4-methoxyphenyl)]quinoline dihydrochloride], the melting point was 276 to 278 °C (dec.).

`COc1ccc(-c2ncc3cc(-n4cnc(C)c4)ccc3n2)cc1` (as salt: hydrochloride) [Example 6, [6-(4-methyl-1H-imidazol-1-yl)-2-(4-methoxyphenyl)]quinazoline] showed a melting point of 201 to 202 °C.

For `FC(F)(F)Oc1ccc(-c2ccc3cc(-n4ccnc4)ccc3n2)cc1` [Example 23, [6-(1H-imidazol-1-yl)-2-(4-trifluoromethoxyphenyl)]quinoline dihydrochloride], the IC50 (I2 Imidazoline Receptor) was 0.82 µM, the IC50 (human recombinant MAO-B) was > 10 µM and the IC50 (human recombinant MAO-A; [1]) was 0.15 µM.

With `Fc1ccc(-c2ccc3cc(-n4ccnc4)ccc3n2)cc1` (as salt: hydrochloride) [Example 21, [6-(1H-imidazol-1-yl)-2-(4-fluorophenyl)]quinoline dihydrochloride] the melting point was 280.7 to 282 °C.

`Cc1cc(OC(F)(F)F)ccc1-c1ccc2cc(-n3ccnc3)ccc2n1` (as salt: hydrochloride) [Example 24, [6-(1H-imidazol-1-yl)-2-(2-methyl-4-trifluoromethoxyphenyl)]quinoline dihydrochloride] gave a melting point of 269.7 to 274.5 °C.

For `N=C(N)NCCCCN` [Agmatine, reference compound], the IC50 (I2 Imidazoline Receptor) was > 10 µM, the IC50 (human recombinant MAO-B) was > 100 µM and the IC50 (human recombinant MAO-A) was > 100 µM.

For `c1ccc2c(c1)OCC(C1=NCCN1)O2` (centres unmarked) [Idazoxan, reference compound], the IC50 (I2 Imidazoline Receptor) was 0.011 µM, the IC50 (human recombinant MAO-B) was > 1 µM and the IC50 (human recombinant MAO-A) was > 1 µM.

For `CS(=O)(=O)c1ccc(-c2ccc3cc(-n4ccnc4)ccc3n2)cc1` [Example 25, [6-(1H-imidazol-1-yl)-2-(4-methanesulfonylphenyl)]quinoline dihydrochloride], the IC50 (human recombinant MAO-B) was > 10 µM, the “MPE (% inhibition in immobility time)” value (CD1 Mice; dose 3 mg/Kg OS) was 23% and the “MPE (% inhibition in immobility time)” value (CD1 Mice; dose 10 mg/Kg OS) was 54%. The “MPE (% inhibition in immobility time)” value (CD1 Mice; dose 30 mg/Kg OS) was 40% and the ED50 (CD1 Mice; dose yielding 50% reduction of immobility, oral) was 8.7 mg/Kg; OS.

Compound `COc1ccccc1-c1ccc2cc(-n3ccnc3)ccc2n1` (as salt: hydrochloride) [Example 19, [6-(1H-imidazol-1-yl)-2-(2-methoxyphenyl)]quinoline dihydrochloride] has a melting point of 251.5 to 252 °C.

With `C#CCN(C)[C@H](C)Cc1ccccc1` [Deprenyl, reference compound] the IC50 (I2 Imidazoline Receptor) was 2.31 µM.

Work on `C#CCN(C)CCCOc1ccc(Cl)cc1Cl` [Clorgyline, reference compound] yielded an IC50 (I2 Imidazoline Receptor) of 1.53 µM.

In the case of `COc1ccc(-c2ncc3cc(-n4ccnc4C)ccc3n2)cc1` (as salt: hydrochloride) [Example 3, [6-(2-methyl-1H-imidazol-1-yl)-2-(4-methoxyphenyl)]quinazoline], the melting point is reported as 198.3 to 200.3 °C.

In the case of `c1cn(-c2ccc3nc(-c4ccoc4)ccc3c2)cn1` (as salt: hydrochloride) [Example 20, [6-(1H-imidazol-1-yl)-2-(3-furyl)]quinoline dihydrochloride], the melting point is reported as 293.1 to 295.6 °C.

`Cc1nccn1-c1ccc2nc(-c3ccoc3)ccc2c1` (as salt: hydrochloride) [Example 28, [6-(2-methyl-1H imidazol-1-yl)-2-(3-furyl)]quinoline dihydrochloride] gave a melting point of 240.1 to 243.2 °C.

`COc1cccc(-c2ncc3cc(-n4cnc(C)c4)ccc3n2)c1` [Example 8, [6-(4-methyl-1H-imidazol-1-yl)-2-(3-methoxyphenyl)]quinazoline] showed a melting point of 294 to 296 °C.

For `Cc1cn(-c2ccc3nc(-c4ccoc4)ncc3c2)cn1` [Example 12, [6-(4-methyl-1H-imidazol-1-yl)-2-(3-furyl)]quinazoline], the melting point was 160.5 to 163.2 °C.

Work on `CSc1ccc(-c2ccc3cc(-n4cnc(C)c4)ccc3n2)cc1` (as salt: hydrochloride) [Example 33, [6-(4-methyl-1H-imidazol-1-yl)-2-(4-methylthiophenyl)]quinoline dihydrochloride] yielded a melting point of 294 to 296 °C.

For `c1ccc2oc(C3=NCCN3)cc2c1` [Example 2-BFI, 2-benzofuranylimidazoline, reference compound], the IC50 (I2 Imidazoline Receptor) was 0.007 µM and the IC50 (human recombinant MAO-A; [1]) was > 1 µM.

Compound `COc1ccc(-c2ccc3cc(-n4ccnc4)ccc3n2)cc1` (as salt: hydrochloride) [Example 18, [6-(1H-imidazol-1-yl)-2-(4-methoxyphenyl)]quinoline dihydrochloride] has a melting point of 266 to 267 °C.

In the case of `Cc1cncn1-c1ccc2nc(-c3ccccc3)ncc2c1` (as salt: hydrochloride) [Example 5, [6-(5-methyl-1H-imidazol-1-yl)-2-phenyl]quinazoline], the melting point is reported as 138.5 to 139.1 °C.

For `COc1ccccc1-c1ccc2cc(-n3ccnc3C)ccc2n1` (as salt: hydrochloride) [Example 27, [6-(2-methyl-1H-imidazol-1-yl)-2-(2-methoxyphenyl)]quinoline dihydrochloride], the melting point was 235 °C (dec.).

For `COc1ccc(-c2ccc3cc(-n4ccnc4C)ccc3n2)cc1` (as salt: hydrochloride) [Example 26, [6-(2-methyl-1H-imidazol-1-yl)-2-(4-methoxyphenyl)]quinoline dihydrochloride], the melting point was 230 °C (dec.).

`Cc1nccn1-c1ccc2nc(-c3ccccc3)ccc2c1` (as salt: hydrochloride) [Example 29, [6-(2-methyl-1H imidazol-1-yl)-2-(phenyl)]quinoline dihydrochloride] showed a melting point of 296 to 297 °C.
